{
  "source": "patent US8715718B2",
  "about": "“Extracellular matrix production from nanoscale substrate” (Rutgers, The State University of New Jersey, priority 2006, dated 2014)",
  "key": {"[1]": {"system": "Human foreskin fibroblasts", "assay": "Imaging of fibronectin matrix assembly as a function of carrier size and ligand density", "assay_type": "cell-based", "conditions": "serum-free, 24 hours", "protocol": "Substrates with equal levels of ligand but differential presentation were adsorbed in 8-well Labtek chamber slides overnight at 4° C. Substrates were then washed generously with PBS and blocked with BSA for 1 hour at 37° C. Fibroblasts were serum-starved at least 12 hours prior to trypsinization and re-plated at a density of 35,000 cells per well in serum free media. Cells were then cultured for 24 hours at 37° C. After 24 hour incubation, media was removed and substrates were washed with DPBS with calcium and magnesium. Cells were fixed with 1% formaldehyde for 9 minutes and washed with DPBS with calcium and magnesium. Cells were permeabilized with Triton-X 100 for 15 minutes and washed with DPBS with calcium and magnesium and blocked with 1% BSA for 1 hour at 37° C. Substrates were washed and primary antibody IST-4 (Sigma) for fibronectin that binds to the 5th type III repeat of human plasma fibronectin was incubated at a 1:100 dilution in PBS overnight at 4° C. Substrates were washed and incubated with FITC-conjugated donkey anti-mouse IgG (Jackson Immunolabs, West Grove, Pa.) at a 1:200 dilution for 30 minutes at room temperature, and were then washed and incubated with Texas-red phalloidin (Molecular Probes, Eugene, Oreg.) for 20 minutes at room temperature. Substrates were washed and stored at 4° C. until image acquisition. […]"}, "fibroblasts [2]": {"system": "fibroblasts", "assay": "Cell morphology on ligand-ANC (FITC-phalloidin)", "assay_type": "cell-based, human", "experimental": "Cell morphology was examined as a function of differential ligand presentation and nanocarrier size at two time points. Passively adsorbed substrates were prepared as described above. Fibroblasts that were serum deprived at least 12 hours before hand were seeded in serum free media for 1 or 5 hours at 37° C. Substrates were washed after the designated incubation time, and fixed with 3.7% formaldehyde for 15 minutes at room temperature. Substrates were washed again and permeabilized with Triton-X 100 for 15 minutes at room temperature. Substrates were washed, blocked with 1% BSA for 15 minutes at room temperature, washed again, and stained with FITC phalloidin (Molecular Probes) for 20 minutes. Substrates were washed and stored at 4° C. until image acquisition. Images were acquired with a Leica TCS SP/2 at 63×.\nThe effects of ligand presentation on cytoskeletal morphology were examined by labeling F-actin at two different time points (FIG. 7b). In that experiment, cell morphology was examined of fibroblasts cultured at the optimal ligand density for cell attachment (2.2 μg/cm^2) at 1 hour (left column) and 5 hours (right column) using FITC-phalloidin."}, "[3]": {"system": "Human foreskin fibroblasts, HFF", "assay": "Fibronectin matrix assembly by HFF, immunofluorescence and image analysis", "assay_type": "cell-based", "experimental": "(§1) Labtek chamber slides (Nalge Nunc International, Rochester, N.Y.) were coated overnight at 4° C. with FNf-ANPs or FNf as described above to attain equivalent display with FNf. […] Fibroblasts were seeded at densities and incubated for times described in each figure legend. […] Samples were then incubated with primary antibodies in blocking buffer (3% BSA) for 1 hour, washed, and further incubated with the appropriate secondary antibodies for 1 hour. Where indicated, cells were also incubated with TexasRed X- or fluoroscein-conjugated phalloidin to visualize F-actin. Cells were examined using a Leica SP/2 Confocal Laser Scanning Microscope."}, "[4]": {"system": "Human foreskin fibroblasts, HFF", "assay": "Cell adhesion assay (hexosaminidase)", "assay_type": "cell-based", "experimental": "To quantify cell attachment to FNf-ANPs, 96-well non-tissue culture dishes were coated overnight at 4° C. with FNf-ANPs or FNf as described above. Wells were washed with PBS and blocked with 1% bovine serum albumin. After washing with PBS, HFF were plated at 2.5×10^4 cells/well and incubated for 60 minutes at 37° C. Medium and unbound cells were removed by inversion of the plate and two washes with PBS. Quantification of the number of adherent cells was performed using the hexosaminidase assay. Briefly, substrate composed of a 1:1 mixture of 0.5% Triton-X 100 and 7.5 mM β-nitrophenyl N-acetyl β-D glucosaminide in 0.1 M citrate buffer, pH 5.0, was added to each well and incubated for 90 minutes at 37° C. The reaction was terminated with 50 mM glycine/5 mM EDTA, pH 10.4 and the absorbance read at 405 nm on a multiwell plate reader.\n(§2) To analyze cellular morphology, shape factors were quantified for all conditions."}, "[5]": {"system": "Human foreskin fibroblasts, HFF", "assay": "Cell morphology by F-actin staining and shape factor", "assay_type": "cell-based", "experimental": "as §1\nTo characterize the effect of nanoparticle display of FNf on early cellular responses, adhesion and morphology were examined. […] Next, we extended the culture time of human foreskin fibroblasts (“HFF”) on FNf-ANPs or equivalent FNf, and evaluated cellular morphology. HFF (2.3×10^4 cells/cm^2) were cultured for 5 hours on surfaces prepared as described in Materials and Methods, then stained for F-actin with Texas Red X-conjugated phalloidin. Bar, 40 μm.\nas §2"}, "fibroblasts [6]": {"system": "fibroblasts", "assay": "Cell attachment to ligand-ANC (hexosaminidase assay)", "assay_type": "cell-based, human", "conditions": "1 hour, equal ligand density, differential presentation", "experimental": "To quantify cell attachment to ligand-ANC, 96-well non-tissue culture dishes were passively coated overnight at 4° C. with varying ligand density and presentation as described above. Wells were washed with PBS and blocked with 1% bovine serum albumin. After washing, fibroblasts were seeded at 25,000 cells/well and incubated for 1 hour at 37° C. Substrates were washed with PBS to remove unbound cells. Adhered cells were quantified using the hexosaminidase assay. Briefly, a substrate mixture composed of 1 part […] and 1 part 7.5 mM [3-nitrophenyl N-acetyl [3-D glucosaminide (Sigma) in 0.1 M citrate buffer (pH 5.0), was added to each well and incubated for 90 minutes at 37° C. The reaction was terminated with a mixture of 50 mM glycine (Sigma) and 5 mM EDTA (Sigma) (pH 10.4). The absorbance was read at 405 nm on a multiwell plate reader.\nCell attachment is one of the earliest cell anchorage responses to substrates. To examine if the nanoscale presentation of ligand could alter early cell binding and attachment events, fibroblasts were seeded on ligand-adsorbed substrates of three different ligand densities with different presentations (FIG. 7a). […] Cells were incubated for 1 hour, unbound cells were washed, and the number of adherent cells was quantified using the hexosaminidase assay. […]"}},
  "data": [
    {"compound": "whole length mouse fibronectin: whole length mouse fibronectin (Innovative Research) adsorbed as control substrate", "values": [
      {"measurement": "fibronectin fibrils on control substrates", "setting": "[1]", "value": "Fibrils were not seen"},
      {"measurement": "cell spreading / morphology on control substrates", "setting": "fibroblasts [2]; control substrates", "value": "polarized morphology consistent with migrating cells"}
    ]},
    {"compound": "C[C@@H](N)[C@H]1CC[C@H](C(=O)Nc2ccncc2)CC1", "note": "[Y27632]", "values": [
      {"measurement": "effect on FNf-ANP induced matrix assembly by HFF", "setting": "[3]; 3 μM Y27632 added 2 hours after seeding on FNf-ANP 1.70 μg/cm^2, overnight", "value": "abrogated"},
      {"measurement": "fibronectin matrix fibrils in the extracellular space compared to control conditions", "setting": "[3]; HFF on FNf-ANP treated with Y27632, image analysis", "value": "significantly decreased levels"}
    ]},
    {"compound": "FNf: recombinant GST fusion of fibronectin fragment comprising repeats III9 and III10, adsorbed alone as comparator", "values": [
      {"measurement": "deposition of fibronectin into the ECM when presented via the culture medium", "setting": "[3]; HFF on bare coverglass, ligand added to media, overnight", "value": "not sufficient"},
      {"measurement": "cell attachment", "setting": "[4]; 60 minutes, lowest amount of ligand tested", "value": "no detectable attachment"},
      {"measurement": "cellular adhesion over the FNf concentration range", "setting": "[4]; adsorbed FNf up to the highest concentration", "value": "no significant increase in cellular adhesion"},
      {"measurement": "cell spreading (morphology)", "setting": "[5]; 45 minutes post seeding", "value": "minimally spread"},
      {"measurement": "cell morphology", "setting": "[5]; 5 hours of culture, F-actin staining", "value": "flattened, well-spread appearance"},
      {"measurement": "shape factor, (perimeter)^2/(4π(area))", "setting": "[5]; 5 hours, about 25 cells per condition, all FNf densities", "value": "around 4"},
      {"measurement": "cell spreading / morphology at 1 hour", "setting": "fibroblasts [2]; 2.2 μg/cm^2, 1 hour", "value": "some filopodial projections"},
      {"measurement": "cell morphology at 5 hours", "setting": "fibroblasts [2]; 2.2 μg/cm^2, 5 hours", "value": "well-spread with well defined stress fibers"},
      {"measurement": "cell attachment at a specific ligand density", "setting": "fibroblasts [6]", "value": "significant attachment, but to a lesser degree"}
    ]}
  ]
}
